# Experimental data taken from patent publication US6355799B1, “Substituted benzene compounds, process for their preparation, and herbicidal and defoliant compositions containing them” (ISK Americas Incorporated, priority 1997, dated 2002).
# Assays:
# Format in all cases: in vivo
# [1] = test system: upland rice (Oryza sp., var. Tebonnet, RICE); test: Post-emerge test, crop safety; conditions: post-emerge, 14 days after application, rating scale 0-100
# Method in brief: (§1)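 Each test used a mechanized track sprayer delivering 187 l/ha of acetone solution at 15–1000 g ai/ha. Post-emerge foliage at 2–3 leaves was treated with added 0.25% v/v non-ionic surfactant and bottom-watered only. Injury was assessed on day 14, where 100 means total kill.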
# [2] = test system: field corn (Zea mays L., var. Dekalb 535, CORN); test: Post-emerge test, crop safety; conditions: post-emerge, 14 days after application, rating scale 0-100
# Method in brief: as §1
# [3] = test system: redroot pigweed (Amaranthus retroflexus, AMARE); test: Pre-emerge test, greenhouse herbicide activity screening; conditions: rated 14 days after application, 0 = no damage, 100 = complete death
# Method in brief: (§2)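 Sandy loam pots; pre-emerge: sown 1 d pre-spray, surface-watered after, then bottom-watered. Post-emerge: sown 8–21 d before, 2–3 leaf stage, + 0.25% v/v NIS, bottom-watered. Acetone, 187 l/ha track spray, 15–1000 g ai/ha. 0–100 injury score, day 14.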
# [4] = test system: upland rice (Oryza sp., var. Tebonnet, RICE); test: Pre-emerge test, crop safety; conditions: rated 14 days after application, 0 = no damage, 100 = complete death
# Method in brief: (§3)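 Visual ratings on a 0-100 scale (0 no damage, 100 all plants dead) were taken at 14 days after treatment. Rates of 15-1000 g ai/ha in acetone, 187 l/ha, were sprayed onto soil one day after planting (pre-emerge) or onto 2-3 leaf plants with 0.25% v/v surfactant (post-emerge).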
# [5] = test system: field corn (Zea mays L., var. Dekalb 535, CORN); test: Pre-emerge test, crop safety; conditions: rated 14 days after application, 0 = no damage, 100 = complete death
# Method in brief: as §3
# [6] = test system: velvetleaf (Abutilon theophrasti, ABUTH); test: Pre-emerge test, greenhouse herbicide activity screening; conditions: rated 14 days after application, 0 = no damage, 100 = complete death
# Method in brief: (§4)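 Plants grown in 10 cm pots of sandy loam mix received acetone-dissolved compounds through a moving flat-fan nozzle. Doses ranged from 15 to 1000 g ai/ha. Pre-emerge pots were seeded one day earlier, post-emerge pots 8–21 days earlier. Fourteen days on, each pot was graded 0–100 for damage.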
# [7] = test system: large crabgrass (Digitaria sanguinalis, DIGSA); test: as above; conditions: rated 14 days after application, 0 = no damage, 100 = complete death
# Method in brief: as §4
# [8] = test system: common ragweed (Ambrosia artemisizfolia L., AMBEL); test: as above; conditions: rated 14 days after application, 0 = no damage, 100 = complete death
# Method in brief: as §4
# [9] = test system: johnsongrass (Sorghum halepense, SORHA); test: as above; conditions: rated 14 days after application, 0 = no damage, 100 = complete death
# Method in brief: as §4
# [10] = test system: sicklepod (Cassia obtusifolia, CASOB); test: as above; conditions: rated 14 days after application, 0 = no damage, 100 = complete death
# Method in brief: as §4
# [11] = test system: green foxtail (Setaria viridis, SETVI); test: as above; conditions: rated 14 days after application, 0 = no damage, 100 = complete death
# Method in brief: as §4
# [12] = test system: lambsquarters (Chenopodium album, CHEAL); test: as above; conditions: rated 14 days after application, 0 = no damage, 100 = complete death
# Method in brief: as §4
# [13] = test system: ivyleaf morningglory (Ipomoea hederacea, IPOHE); test: as above; conditions: rated 14 days after application, 0 = no damage, 100 = complete death
# Method in brief: as §4
# [14] = test system: barnyardgrass (Echinochloa crus-galli, ECHCG); test: as above; conditions: rated 14 days after application, 0 = no damage, 100 = complete death
# Method in brief: as §4
# [15] = test system: velvetleaf (Abutilon theophrasti, ABUTH); test: Post-emerge test, greenhouse herbicide activity screening; conditions: post-emerge, 14 days after application, rating scale 0-100
# Method in brief: as §2
# [16] = test system: large crabgrass (Digitaria sanguinalis, DIGSA); test: as above; conditions: post-emerge, 14 days after application, rating scale 0-100
# Method in brief: as §2
# [17] = test system: redroot pigweed (Amaranthus retroflexus, AMARE); test: as above; conditions: post-emerge, 14 days after application, rating scale 0-100
# Method in brief: as §2
# [18] = test system: common ragweed (Ambrosia artemisizfolia L., AMBEL); test: as above; conditions: post-emerge, 14 days after application, rating scale 0-100
# Method in brief: as §2
# [19] = test system: johnsongrass (Sorghum halepense, SORHA); test: as above; conditions: post-emerge, 14 days after application, rating scale 0-100
# Method in brief: as §2
# [20] = test system: sicklepod (Cassia obtusifolia, CASOB); test: as above; conditions: post-emerge, 14 days after application, rating scale 0-100
# Method in brief: as §2
# [21] = test system: lambsquarters (Chenopodium album, CHEAL); test: as above; conditions: post-emerge, 14 days after application, rating scale 0-100
# Method in brief: as §2
# [22] = test system: ivyleaf morningglory (Ipomoea hederacea, IPOHE); test: as above; conditions: post-emerge, 14 days after application, rating scale 0-100
# Method in brief: as §2
# [23] = test system: barnyardgrass (Echinochloa crus-galli, ECHCG); test: as above; conditions: post-emerge, 14 days after application, rating scale 0-100
# Method in brief: as §2
smiles,measurement,setting,value
COc1c(Cl)cc(F)c(-n2c(=O)cc(C(F)(F)F)n(C)c2=O)c1N(C(=O)c1ccc(F)c(F)c1)C(=O)c1ccc(F)c(F)c1 [2-49],phytotoxicity rating RICE,[1]; 63 g ai/ha,0
same,phytotoxicity rating RICE,[1]; 250 g ai/ha,10
same,phytotoxicity rating CORN,[2]; 63 g ai/ha,0
same,phytotoxicity rating CORN,[2]; 250 g ai/ha,10
same,"Pre-emerge Herbicidal Activity, phytotoxicity rating (0-100), AMARE",[3]; 63 g ai/ha,100
same,"Pre-emerge Herbicidal Activity, phytotoxicity rating (0-100), AMARE",[3]; 250 g ai/ha,100
same,"Pre-emerge phytotoxicity rating (0-100), crop damage, RICE",[4]; 63 g ai/ha,20
same,"Pre-emerge phytotoxicity rating (0-100), crop damage, RICE",[4]; 250 g ai/ha,60
same,"Pre-emerge phytotoxicity rating (0-100), crop damage, CORN",[5]; 63 g ai/ha,0
same,"Pre-emerge phytotoxicity rating (0-100), crop damage, CORN",[5]; 250 g ai/ha,15
same,"Pre-emerge Herbicidal Activity, phytotoxicity rating (0-100), ABUTH",[6]; 63 g ai/ha,100
same,"Pre-emerge Herbicidal Activity, phytotoxicity rating (0-100), ABUTH",[6]; 250 g ai/ha,100
same,"Pre-emerge Herbicidal Activity, phytotoxicity rating (0-100), DIGSA",[7]; 63 g ai/ha,20
same,"Pre-emerge Herbicidal Activity, phytotoxicity rating (0-100), DIGSA",[7]; 250 g ai/ha,100
same,"Pre-emerge Herbicidal Activity, phytotoxicity rating (0-100), AMBEL",[8]; 63 g ai/ha,100
same,"Pre-emerge Herbicidal Activity, phytotoxicity rating (0-100), AMBEL",[8]; 250 g ai/ha,100
same,"Pre-emerge Herbicidal Activity, phytotoxicity rating (0-100), SORHA",[9]; 63 g ai/ha,0
same,"Pre-emerge Herbicidal Activity, phytotoxicity rating (0-100), SORHA",[9]; 250 g ai/ha,0
same,"Pre-emerge Herbicidal Activity, phytotoxicity rating (0-100), CASOB",[10]; 63 g ai/ha,0
same,"Pre-emerge Herbicidal Activity, phytotoxicity rating (0-100), CASOB",[10]; 250 g ai/ha,100
same,"Pre-emerge Herbicidal Activity, phytotoxicity rating (0-100), SETVI",[11]; 63 g ai/ha,80
same,"Pre-emerge Herbicidal Activity, phytotoxicity rating (0-100), SETVI",[11]; 250 g ai/ha,95
same,"Pre-emerge Herbicidal Activity, phytotoxicity rating (0-100), CHEAL",[12]; 63 g ai/ha,100
same,"Pre-emerge Herbicidal Activity, phytotoxicity rating (0-100), CHEAL",[12]; 250 g ai/ha,100
same,"Pre-emerge Herbicidal Activity, phytotoxicity rating (0-100), IPOHE",[13]; 63 g ai/ha,0
same,"Pre-emerge Herbicidal Activity, phytotoxicity rating (0-100), IPOHE",[13]; 250 g ai/ha,90
same,"Pre-emerge Herbicidal Activity, phytotoxicity rating (0-100), ECHCG",[14]; 63 g ai/ha,0
same,"Pre-emerge Herbicidal Activity, phytotoxicity rating (0-100), ECHCG",[14]; 250 g ai/ha,10
same,phytotoxicity rating ABUTH,[15]; 63 g ai/ha,90
same,phytotoxicity rating ABUTH,[15]; 250 g ai/ha,100
same,phytotoxicity rating DIGSA,[16]; 63 g ai/ha,0
same,phytotoxicity rating DIGSA,[16]; 250 g ai/ha,0
same,phytotoxicity rating AMARE,[17]; 63 g ai/ha,20
same,phytotoxicity rating AMARE,[17]; 250 g ai/ha,40
same,phytotoxicity rating AMBEL,[18]; 63 g ai/ha,50
same,phytotoxicity rating AMBEL,[18]; 250 g ai/ha,40
same,phytotoxicity rating SORHA,[19]; 63 g ai/ha,0
same,phytotoxicity rating SORHA,[19]; 250 g ai/ha,0
same,phytotoxicity rating CASOB,[20]; 63 g ai/ha,30
same,phytotoxicity rating CASOB,[20]; 250 g ai/ha,50
same,phytotoxicity rating CHEAL,[21]; 63 g ai/ha,60
same,phytotoxicity rating CHEAL,[21]; 250 g ai/ha,60
same,phytotoxicity rating IPOHE,[22]; 63 g ai/ha,70
same,phytotoxicity rating IPOHE,[22]; 250 g ai/ha,70
same,phytotoxicity rating ECHCG,[23]; 63 g ai/ha,0
same,phytotoxicity rating ECHCG,[23]; 250 g ai/ha,0
